In patent US20240368174A1, “Antiviral Heterocyclic Compounds” (Enanta Pharmaceuticals, Inc., priority 2023, published 2024) one finds EC50 data, which are given here for 36 compounds.

In the experiment the test system is HMPV clinical isolate A2 strain TN 94-49. Kind of experiment: HMPV antiviral assay, Method 2 (LLC-MK2 cells with CP-100-356, ATP-Lite). Type of experiment: cell-based. The conditions noted are these: human metapneumovirus; hMPV A2 TN/94-49, LLC-MK2 cells with CP-100-356, Method 2. As to the method: In vitro HMPV antiviral activity was evaluated using the clinical isolate A2 strain TN 94-49 (obtained from Dr. John Williams, Vanderbilt University, Tennessee) and LLC-MK2 cells (Millipore Sigma CB_85062804), an immortalized kidney epithelial cell line from Macaca mulatta. Compounds were resuspended in dimethyl sulfoxide (DMSO) at 10 mM, serially diluted and added to a 384-well source plate. Subsequently, the compounds were diluted and transferred onto 384-well assay plates using the Echo-650 automated liquid handling system (Beckman Coulter, Indiana). The test compounds were assessed in duplicate at a top concentration of 200 nM followed by 2.5-fold serial dilutions to give a total of 10 concentration points. DMSO control wells were also included on the assay plates and were either infected or not, acting as positive and negative controls. A2 TN 94-49 virus infections were performed in-suspension with LLC-MK2 cells. The cells were washed twice with PBS and removed from the cell-culture flask with 0.25% trypsin-EDTA (Thermo Fisher Scientific, MA). The trypsin-EDTA was inactivated by resuspending in 2% fetal bovine serum (FBS) and OptiMEM (ThermoFisher Scientific, MA) containing 1% antibiotic-antimycotic. Cells were pelleted by centrifuging for 5 minutes at 800 rpm, the supernatant was removed, and cells were re-suspended and washed in PBS plus 100 μg/mL CaCl2). This step was performed twice. Cells were then re-suspended in serum-free (SF)-OptiMEM containing 4 μg/mL TPCK-Trypsin (Sigma Aldrich, MO), 1% antibiotic-antimycotic (ThermoFisher Scientific, MA), 100 μg/mL CaCl2), and 4 μM of CP-100-356, a P-glycoprotein inhibitor. Cells were counted and seeded at a density of 5,000 cells/well, 12.5 μL/well. Virus infections were done at a multiplicity of infection (MOI) of 0.16 with 12.5 μL added per well. Virus infections were performed in infection media which contained SF-OptiMEM, 100 μg/mL CaCl2) and 1% antibiotic-antimycotic. HMPV viral stocks are suspended in infection media+5% glycerol, thus an equal volume of infection media+5% glycerol was added to uninfected wells to equalize the final % glycerol across all wells of the assay plate. The final concentration of TPCK-trypsin was 2 μg/mL. The final concentration of CP-100-356 was 2 μM. The assay plates were incubated at 37° C., 5% CO2 for 7 days. After 7 days incubation, 12.5 μL of ATP-Lite (PerkinElmer, MA) was added to each well and the raw luminescence values were determined using the Envision 2104 (Perkin Elmer, MA). The average of the raw luminescence values for the cells and virus only positive control wells was subtracted from all conditions tested and the percent cell health was determined by dividing these values by the average of the cells only negative control wells. EC50 values were then calculated by non-linear regression using a four-parameter curve logistic equation. The curve fit model employed was XLFit Dose Response One Site Model 200: y=(A+(B/(1+((x/C)^D)))), where A is the minimum y value, B is the maximum y value, C is the log EC50 value, and D is the slope factor.
As usually defined, the EC50 is the midpoint of the concentration-response curve. A lower EC50 goes with an effect from little substance. `C[C@]1(C(N)=O)COc2c1cc([C@@](O)(CNC(=O)c1ccc3nc(C4CC4)oc3c1)c1ccccc1)nc2-c1cc(C(F)(F)F)c(F)cc1F` [Example 307] registered an EC50 greater than 200 nM.

In the case of `C[C@]1(C(N)=O)COc2c1cc([C@@](O)(CNC(=O)c1ccc3nc(C4CC4)oc3c1)c1ccccc1)nc2-c1cc(C(F)F)c(F)cc1F` [Example 311], the EC50 is less than 200 nM.

Consider `C[C@]1(C(N)=O)COc2c1cc([C@@](O)(CNC(=O)c1ccc3nc(C4CC4)oc3c1)c1cccc(F)c1)nc2-c1ccc(F)c(Cl)c1Cl` [Example 312], for which the EC50 is less than 200 nM.

`C[C@]1(C(N)=O)COc2c1cc([C@@](O)(CNC(=O)c1cc(OC3CC3)c3ncc(Cl)cc3c1)c1ccccc1)nc2-c1ccc(F)c(Cl)c1Cl` [Example 313] came in with a concentration for a half-maximal effect (EC50) of less than 200 nM.

`C[C@]1(C(N)=O)COc2c1cc([C@@](O)(CNC(=O)c1cc(OC3CC3)c3ncc(Cl)cc3c1)c1ccccc1)nc2-c1cc(C(F)(F)F)c(F)cc1F` [Example 315] yielded an EC50 of less than 200 nM.

`COc1cc(C(=O)NC[C@](O)(c2cc3c(c(-c4cc(C(F)(F)F)c(F)cc4F)n2)OC[C@]3(C)C(N)=O)C2CC2)cc2cc(Cl)cnc12` [Example 316] gave an EC50 of less than 200 nM.

In turn, `C[C@]1(C(N)=O)COc2c1cc([C@@](O)(CNC(=O)c1cc(OC3CC3)c3ncc(Cl)cc3c1)C1CC1)nc2-c1cc(C(F)(F)F)c(F)cc1F` [Example 317] came in with a concentration for a half-maximal effect (EC50) of less than 200 nM.

`C[C@]1(C(N)=O)COc2c1cc([C@@](O)(CNC(=O)c1cc(OC3CC3)n3nc(C4CC4)cc3c1)C1CC1)nc2-c1cc(C(F)(F)F)c(F)cc1F` [Example 328] showed an EC50 of less than 200 nM.

`COc1cc(C(=O)NC[C@](O)(c2cc3c(c(-c4cc(C(F)(F)F)c(F)cc4F)n2)OC[C@]3(C)C(N)=O)C2CC2)cc2cc(C(F)(F)F)cnc12` [Example 329] registered a 50% effective concentration (EC50) of less than 200 nM.

For the compound `COc1cc(C(=O)NC[C@](O)(c2cc3c(c(-c4ccc(F)c(C(F)(F)F)c4)n2)OC[C@]3(C)C(N)=O)C2CC2)cc2oc(C3CC3)nc12` [Example 330], the concentration giving a half-maximal response (EC50) was less than 200 nM.

`COc1cc(C(=O)NC[C@@](O)(c2ccccc2)c2cc3c(c(-c4cc(Cl)ccc4F)n2)OC[C@]3(C)C(N)=O)cc2oc(C3CC3)nc12` [Example 331] showed an EC50 of less than 200 nM.

For `COc1cc(C(=O)NC[C@@](O)(c2ccccc2)c2cc3c(c(-c4cc(C(F)(F)F)ccc4F)n2)OC[C@]3(C)C(N)=O)cc2oc(C3CC3)nc12` [Example 332], the EC50 was less than 200 nM.

The compound `COc1cc(C(=O)NC[C@@](O)(c2cccc(F)c2)c2cc3c(c(-c4cccc(Cl)c4Cl)n2)OC[C@]3(C)C(N)=O)cc2cc(Cl)cnc12` [Example 333] gave an EC50 of less than 200 nM.

Compound `C[C@]1(C(N)=O)COc2c1cc([C@@](O)(CNC(=O)c1cc(OC3CC3)c3ncc(Cl)cc3c1)c1cccc(F)c1)nc2-c1cccc(Cl)c1Cl` [Example 334] came in with an EC50 of less than 200 nM.

Compound `C[C@]1(C(N)=O)COc2c1cc([C@@](O)(CNC(=O)c1cc(OC3CC3)n3nc(C4CC4)cc3c1)c1cccc(F)c1)nc2-c1cccc(Cl)c1Cl` [Example 335] showed an EC50 of less than 200 nM.

`COc1cc(C(=O)NC[C@@](O)(c2cccc(F)c2)c2cc3c(c(-c4cccc(Cl)c4Cl)n2)OC[C@]3(C)C(N)=O)cc2cc(C3CC3)nn12` [Example 336] had a half-maximal effective concentration (EC50) of less than 200 nM.

`COc1cc(C(=O)NC[C@@](O)(c2cccc(F)c2)c2cc3c(c(-c4cccc(Cl)c4Cl)n2)OC[C@]3(C)C(N)=O)cn2cc(C3CC3)nc12` [Example 337] showed an EC50 of less than 200 nM.

As to `C[C@]1(C(N)=O)COc2c1cc([C@@](O)(CNC(=O)c1cc(OC3CC3)c3nn(C4(F)CC4)cc3c1)c1cccc(F)c1)nc2-c1cccc(Cl)c1Cl` [Example 339], the EC50 is less than 200 nM.

The compound `COc1cc(C(=O)NC[C@@](O)(c2cccc(F)n2)c2cc3c(c(-c4ccc(F)c(Cl)c4Cl)n2)OC[C@]3(C)C(N)=O)cc2cn(C3CC3)nc12` [Example 340] came in with an EC50 of less than 200 nM.

`COc1cc(C(=O)NC[C@@](O)(c2ccccc2)c2cc3c(c(-c4cc(Cl)c(F)cc4F)n2)OC[C@]3(C)C(N)=O)cc2cc(Cl)c(F)nc12` [Example 342] came in with an EC50 greater than 200 nM.

On to `C[C@]1(C(N)=O)COc2c1cc([C@@](O)(CNC(=O)c1cc(Cl)c3nn(C4CC4)cc3c1)C1CC1)nc2-c1cc(C(F)(F)F)ncc1F` [Example 353], for which the EC50 was less than 200 nM.

`COc1cc(C(=O)NC[C@](O)(c2cc3c(c(-c4cc(C(F)(F)F)ncc4F)n2)OC[C@]3(C)C(N)=O)C2CC2)cc2cc(C3CC3)nn12` [Example 354]: the EC50 is less than 200 nM.

The compound `COc1cc(C(=O)NC[C@@](O)(c2ccccc2)c2cc3c(c(-c4ccnc(F)c4Cl)n2)OC[C@]3(C)C(N)=O)cc2cn(C(F)F)nc12` [Example 358] returned an EC50 of less than 200 nM.

Compound `COc1cc(C(=O)NC[C@@](O)(c2ccccc2)c2cc3c(c(-c4ccnc(F)c4Cl)n2)OC[C@]3(C)C(N)=O)cn2cc(C3CC3)nc12` [Example 359] registered an EC50 of less than 200 nM.

On to `COc1cc(C(=O)NCC(O)(c2ccccc2)c2cc3c(c(-c4ccc(F)cc4)n2)OC[C@]3(C)C(N)=O)cc2cn(C3(F)CC3)nc12` (stereo partly drawn) [Example 361], for which the EC50 is greater than 200 nM.

In turn, `COc1cc(C(=O)NCC(O)(c2ccccc2)c2cc3c(c(-c4ccc(F)c(Cl)c4)n2)OC[C@]3(C)C(N)=O)cc2cn(C3(F)CC3)nc12` (stereo partly drawn) [Example 362] had an EC50 of less than 200 nM.

`COc1cc(F)c(-c2nc([C@@](O)(CNC(=O)c3cc(OC)c4nn(C5(F)CC5)cc4c3)c3ccccc3)cc3c2OC[C@]3(C)C(N)=O)cc1F` [Example 363] had an EC50 greater than 200 nM.

In the case of `COc1cc(-c2nc([C@@](O)(CNC(=O)c3cc(OC)c4nn(C5(F)CC5)cc4c3)c3ccccc3)cc3c2OC[C@]3(C)C(N)=O)c(F)cc1F` [Example 364], the EC50 is greater than 200 nM.

`COc1cc(F)c(F)cc1-c1nc([C@@](O)(CNC(=O)c2cc(OC)c3nn(C4(F)CC4)cc3c2)c2ccccc2)cc2c1OC[C@]2(C)C(N)=O` [Example 365] yielded an EC50 of less than 200 nM.

For `COc1cc(C(=O)NC[C@@](O)(c2ccccc2)c2cc3c(c(-c4cccc5c4OCO5)n2)OC[C@]3(C)C(N)=O)cc2cn(C3(F)CC3)nc12` [Example 366], the EC50 was greater than 200 nM.

With `COc1cc(C(=O)NC[C@@](O)(c2ccccc2)c2cc3c(c(-c4cccc(F)c4F)n2)OC[C@]3(C)C(N)=O)cc2cn(C3(F)CC3)nc12` [Example 367], the EC50 was less than 200 nM.

Compound `COc1cc(C(=O)NC[C@@](O)(c2ccccc2)c2cc3c(c(-c4cccc(F)c4Cl)n2)OC[C@]3(C)C(N)=O)cc2cn(C3(F)CC3)nc12` [Example 368] registered an EC50 of less than 200 nM.

Consider `COc1cc(C(=O)NC[C@@](O)(c2ccccc2)c2cc3c(c(-c4cccc(Cl)c4F)n2)OC[C@]3(C)C(N)=O)cc2cn(C3(F)CC3)nc12` [Example 369], for which the half-maximal effective concentration (EC50) is less than 200 nM.

Turning to `COc1cc(C(=O)NC[C@@](O)(c2ccccc2)c2cc3c(c(-c4ccc(F)c(F)c4Cl)n2)OC[C@]3(C)C(N)=O)cc2cn(C3(F)CC3)nc12` [Example 370], the concentration for a half-maximal effect (EC50) is less than 200 nM.

`COc1cc(C(=O)NC[C@@](O)(c2ccccc2)c2cc3c(c(-c4ccc(S(C)(=O)=O)cc4F)n2)OC[C@]3(C)C(N)=O)cc2cn(C3(F)CC3)nc12` [Example 371]: the EC50 was greater than 200 nM.

Consider `COc1cc(C(=O)NC[C@@](O)(c2ccccc2)c2cc3c(c(-c4cc(S(C)(=O)=O)ccc4F)n2)OC[C@]3(C)C(N)=O)cc2cn(C3(F)CC3)nc12` [Example 372], for which the concentration for a half-maximal effect (EC50) was greater than 200 nM.
